In patent publication US11952384B2, “Anti-tumor compound and preparation method and use thereof” (DUALITY BIOLOGICS (SUZHOU) CO., LTD., priority 2020, dated 2024):
Like-named read-outs stand apart in the source and are kept apart here.

What was measured:
JIMT-1 cells = test: Inhibition of in vitro proliferation of tumor cells by compounds (CTG, 6 days); format: cell-based; settings: small molecule fragments, 6 days of culture, CTG, read-out: JIMT-1 IC50
How it was run: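 JIMT-1 cells in RPMI-1640/10% FBS plated at 6×10^4 cells/mL, left 18 h, then exposed to 8 compound concentrations (0.1–300 nM) in duplicate for 6 days at 37° C. Viability by CellTiter-Glo luminescence; IC50 derived.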

NCI-N87 cells = test: as above; format: cell-based; settings: small molecule fragments, 6 days of culture, CTG, read-out: NCI-N87 IC50
How it was run: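 NCI-N87 cells in RPMI-1640 with 10% FBS, plated and allowed 18 h attachment, then exposed in duplicate to 8 concentrations from 300 nM to 0.1 nM for 6 days at 37 °C, 5% CO2. Viability read by CellTiter-Glo luminescence; IC50 derived from the dose-response.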

BCRP = target: T1, BCRP (Homo sapiens, UniProt Q9UNQ0); test: in vitro; settings: for Papp A→B at 2 h: Caco-2, Papp (A-B) (10^−6, cm/s); for Papp B→A at 2 h: Caco-2, Papp (B-A) (10^−6, cm/s)
T1 sequence (Q9UNQ0 1-655): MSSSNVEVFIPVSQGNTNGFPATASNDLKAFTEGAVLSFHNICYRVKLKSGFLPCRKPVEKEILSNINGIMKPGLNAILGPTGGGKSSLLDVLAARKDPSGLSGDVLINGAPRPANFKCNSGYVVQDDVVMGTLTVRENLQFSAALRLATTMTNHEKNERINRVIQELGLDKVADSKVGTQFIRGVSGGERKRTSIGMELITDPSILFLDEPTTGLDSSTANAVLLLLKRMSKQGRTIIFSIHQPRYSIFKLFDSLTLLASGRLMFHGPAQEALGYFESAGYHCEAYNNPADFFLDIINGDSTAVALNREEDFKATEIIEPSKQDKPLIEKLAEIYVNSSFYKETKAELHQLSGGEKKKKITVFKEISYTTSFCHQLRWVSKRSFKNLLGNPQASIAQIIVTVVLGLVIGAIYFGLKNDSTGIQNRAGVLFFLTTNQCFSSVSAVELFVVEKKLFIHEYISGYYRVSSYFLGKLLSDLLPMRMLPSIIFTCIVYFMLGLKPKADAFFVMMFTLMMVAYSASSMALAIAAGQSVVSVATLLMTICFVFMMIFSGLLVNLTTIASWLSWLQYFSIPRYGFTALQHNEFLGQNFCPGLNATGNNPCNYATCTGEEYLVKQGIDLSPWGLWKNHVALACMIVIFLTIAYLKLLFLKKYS

[1] = Homo sapiens, JIMT-1, 144 h, Table 1, Test Example 2.1
[2] = Homo sapiens, JIMT-1, 144 h, Table 2 (untitled), Test Example 2.2
[3] = Homo sapiens, NCI-N87, 144 h, Table 1, Test Example 2.1
[4] = Homo sapiens, NCI-N87, 144 h, Table 2 (untitled), Test Example 2.2
[5] = Table 2 (untitled), Test Example 2.2

## CC[C@@]1(O)C(=O)OCc2c1cc1n(c2=O)Cc2c-1nc1cc(F)c(C)c3c1c2[C@@H](NC(=O)[C@H]1C[C@@H](O)C1)CC3 [P-II-3, (1s,3R)-N-((1S,9S)-9-ethyl-5-fluoro-9-hydroxy-4-methyl-10,13-dioxo-2,3,9,10,13,15-hexahydro-1H,12H-benzo[de]pyrano[3′,4′:6,7]indolizino[1,2-b]quinolin-1-yl)-3-hydroxycyclobutane-1-carboxamide]
JIMT-1 cells; [1]
  IC50: 5 nM
JIMT-1 cells; [2]
  IC50: 5 nM
NCI-N87 cells; [3]
  IC50: 9.56 nM
NCI-N87 cells; [4]
  IC50: 9.56 nM
BCRP
  Papp A→B at 2 h: 0.17 ×10⁻⁶ cm/s
  Papp B→A at 2 h: 4.83 ×10⁻⁶ cm/s

## CC[C@@]1(O)C(=O)OCc2c1cc1n(c2=O)Cc2c-1nc1cc(F)c(C)c3c1c2[C@@H](NC(=O)[C@H]1C[C@H](O)C1)CC3 [P-II-4, (1r,3S)-N-((1S,9S)-9-ethyl-5-fluoro-9-hydroxy-4-methyl-10,13-dioxo-2,3,9,10,13,15-hexahydro-1H,12H-benzo[de]pyrano[3′,4′:6,7]indolizino[1,2-b]quinolin-1-yl)-3-hydroxycyclobutane-1-carboxamide]
JIMT-1 cells; [1]
  IC50: 6.64 nM
JIMT-1 cells; [2]
  IC50: 6.6 nM
NCI-N87 cells; [3]
  IC50: 8.03 nM
NCI-N87 cells; [4]
  IC50: 8.03 nM
BCRP
  Papp A→B at 2 h: 0.05 ×10⁻⁶ cm/s
  Papp B→A at 2 h: 1.72 ×10⁻⁶ cm/s

## CC[C@@]1(O)C(=O)OCc2c1cc1n(c2=O)Cc2c-1nc1cc(F)c(C)c3c1c2[C@@H](NC(=O)C1CCC(O)CC1)CC3 (single isomer, unassigned) [P-II-1]
JIMT-1 cells; Table 1, Test Example 2.1
  IC50: 8.47 nM
JIMT-1 cells; [5]
  IC50: 8.5 nM
NCI-N87 cells; [3]
  IC50: 18.5 nM
NCI-N87 cells; [4]
  IC50: 18.5 nM

## CC[C@@]1(O)C(=O)OCc2c1cc1n(c2=O)Cc2c-1nc1cc(F)c(C)c3c1c2[C@@H](NC(=O)C[C@@H](C)O)CC3 [P-III-20, (R)—N-((1S,9S)-9-ethyl-5-fluoro-9-hydroxy-4-methyl-10,13-dioxo-2,3,9,10,13,15-hexahydro-1H,12H-benzo[de]pyrano[3′,4′: 6,7]indolizino[1,2-b]quinolin-1-yl)-3-hydroxybutanamide]
JIMT-1 cells; [1]
  IC50: 4.35 nM
JIMT-1 cells; Homo sapiens, JIMT-1, 144 h, Table 3, Test Example 2.3
  IC50: 4.35 nM
NCI-N87 cells; [3]
  IC50: 5.89 nM
NCI-N87 cells; Homo sapiens, NCI-N87, 144 h, Table 3, Test Example 2.3
  IC50: 5.89 nM
NCI-N87 cells; Homo sapiens, NCI-N87, 144 h, Table 4, Test Example 2.4
  IC50: 5.9 nM

## CC[C@@]1(O)C(=O)OCc2c1cc1n(c2=O)Cc2c-1nc1cc(F)c(C)c3c1c2[C@@H](NC(=O)C1CCC(O)CC1)CC3 (single isomer, unassigned) [P-II-2]
JIMT-1 cells; Table 1, Test Example 2.1
  IC50: 17 nM
JIMT-1 cells; [5]
  IC50: 17.2 nM
NCI-N87 cells; Table 1, Test Example 2.1
  IC50: 22.1 nM
NCI-N87 cells; [5]
  IC50: 22.1 nM
